Data reported in the supplement of paper PMC10307832.

Experiments:
Test in all cases: relative viability (nuclei count vs DMSO), 5 days (fraction); higher = more cells survive
[1] = compound: NCC(=O)Nc1ccc(-n2nc(C(F)(F)F)cc2-c2ccc3c(ccc4ccccc43)c2)cc1 + C[C@@H](Oc1cc(-c2cnn(C3CCNCC3)c2)cnc1N)c1c(Cl)ccc(F)c1Cl [Crizotinib] (partner 1 µM)
Summary of the method: (§1)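 Dosing by pin tool came one day after lung cancer cell lines were seeded in 1536-well plates, using either one drug or a fixed anchor-drug dose plus five library-drug doses (not always all listed) in √10 steps. After 5 days, nuclei were counted on 4× images. Relative viability is treated-well nuclei count divided by vehicle-well nuclei count, and values are medians of duplicate plates.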

[2] = compound: C1CSC2=C(C(=O)N1)SC3=C2C=C(C=C3)O [kb NB 142-70] + NC(=O)Nc1cc(-c2cccc(F)c2)sc1C(=O)N[C@H]1CCCNC1 [AZD7762] (partner 0.2 µM)
Summary of the method: as §1

[3] = compound: NCC(=O)Nc1ccc(-n2nc(C(F)(F)F)cc2-c2ccc3c(ccc4ccccc43)c2)cc1 + Cc1nc(NC(=O)N2CCC[C@H]2C(N)=O)sc1-c1ccnc(C(C)(C)C(F)(F)F)c1 [Alpelisib] (partner 2 µM)
Summary of the method: as §1

[4] = compound: C1CSC2=C(C(=O)N1)SC3=C2C=C(C=C3)O [kb NB 142-70] + O=C(CCCCCCC(=O)Nc1ccccc1)NO [Vorinostat] (partner 1 µM)
Summary of the method: as §1

| Cell Line | relative viability ([1]; first compound 0.02 µM) | relative viability ([1]; first compound 0.06325 µM) | relative viability ([1]; first compound 0.2 µM) | relative viability ([1]; first compound 0.6325 µM) | relative viability ([1]; first compound 2 µM) | relative viability ([2]; first compound 0.1 µM) | relative viability ([2]; first compound 1 µM) | relative viability ([2]; first compound 3.162 µM) | relative viability ([3]; first compound 0.02 µM) | relative viability ([3]; first compound 0.06325 µM) | relative viability ([3]; first compound 0.2 µM) | relative viability ([3]; first compound 0.6325 µM) | relative viability ([3]; first compound 2 µM) | relative viability ([4]; first compound 0.1 µM) | relative viability ([4]; first compound 1 µM) | relative viability ([4]; first compound 3.162 µM) |
| --- | --- | --- | --- | --- | --- | --- | --- | --- | --- | --- | --- | --- | --- | --- | --- | --- |
| EMC-BAC-2 | 0.737 | 0.763 | 0.797 | 0.712 | 0.765 | 1.13 | 1.15 | 0.731 | 0.742 | 0.75 | 0.764 | 0.772 | 0.715 | 0.556 | 0.472 | 0.16 |
| EPLC-272H | 1.03 | 0.965 | 0.881 | 0.878 | 0.962 | 0.265 | 0.34 | 0.284 | 1.06 | 0.916 | 0.917 | 1.05 | 0.936 | 0.597 | 0.273 | 0.155 |
| H3255 | 0.936 | 0.846 | 0.884 | 0.806 | 0.894 | 0.86 | 0.925 | 0.999 | 0.782 | 0.651 | 0.746 | 0.811 | 0.731 | 0.973 | 0.864 | 0.842 |
| HARA | 1.06 | 1.01 | 1.04 | 1.05 | 1.13 | 0.292 | 0.393 | 1.07 | 0.859 | 0.958 | 0.844 | 0.831 | 0.867 | 0.449 | 0.438 | 0.563 |
| HCC-15 | 0.817 | 0.808 | 0.795 | 0.773 | 0.768 | 1.2 | 1.29 | 1.28 | 0.879 | 0.9 | 0.889 | 0.956 | 0.865 | 0.812 | 0.816 | 0.801 |
| HCC-44 | 0.9 | 0.828 | 0.853 | 0.819 | 0.74 | 0.99 | 1.06 | 1.06 | 0.752 | 0.832 | 0.817 | 0.709 | 0.785 | 1.09 | 1.14 | 1.21 |
| HCC-78 | 0.361 | 0.363 | 0.346 | 0.337 | 0.348 | 0.616 | 0.629 | 0.684 | 0.361 | 0.422 | 0.376 | 0.306 | 0.397 | 0.407 | 0.602 | 0.483 |
| HCC-366 | 0.558 | 0.589 | 0.55 | 0.736 | 0.456 | 0.277 | 0.572 | 0.734 | 0.32 | 0.432 | 0.489 | 0.435 | 0.322 | 0.473 | 0.372 | 0.231 |
| HCC-827 | 0.988 | 1.04 | 0.966 | 0.929 | 0.937 | 0.233 | 0.195 | 0.255 | 1.02 | 1.08 | 0.957 | 0.944 | 1.02 | 0.763 | 0.864 | 0.88 |
| HOP-62 | 0.579 | 0.921 | 0.942 | 0.884 | 0.927 | 0.691 | 1.1 | 0.764 | 1.09 | 0.995 | 0.922 | 0.975 | 0.859 | 0.69 | 0.713 | 0.579 |
